Patent EP4578449A1, “PHARMACEUTICAL COMBINATION OF FAK INHIBITOR AND MICROTUBULE INHIBITOR AND USE THEREOF” (Inxmed (Nanjing) Co., Ltd., priority 2022, dated 2024)

Columns and labels:
Type in all cases: cell-based
SK-OV-3 cells [1] = experiment: FAK silencing combined with Docetaxel, Annexin V apoptosis by flow cytometry; settings: SK-OV-3 cells transfected with FAK siRNA 50 nM for 24 hours, then 0.3 µM or 1 µM Docetaxel 48 hours; FAK silencing group compared with control siRNA group
[2] = system: mouse colon cancer CT26 cells; experiment: Docetaxel/Eribulin/Paclitaxel and Defactinib: microscopy and CRT/Annexin-V/PI flow cytometry; settings: 48 hours, Defactinib 5 µM, Docetaxel 0.3 µM, Eribulin 0.3 µM, Paclitaxel 6 µM, alone or combined with Defactinib
Description: CT26 cells were cultured in monolayer in vitro under the following conditions: RPMI-1640 medium with 10% fetal bovine serum, 37°C, 5% CO2. Trypsin was used for routine digestion and passage treatment two to three times a week. When the cells were in the exponential growth phase and the adherent confluence reached 80%-90%, the cells were harvested and plated.
CT26 cells were digested with trypsin, and then the cells were collected and counted. Based on the counting results, the cells were diluted with the corresponding complete culture medium to a concentration of 50,000 cells per milliliter. Then the cells were plated in 12-well cell culture plates, with 2 ml of cell suspension per well, i.e., 100,000 cells.
After plating, the cells were cultured in a 37°C and 5% CO2 incubator.
After 24 hours of plating, the test compounds Docetaxel, Eribulin, Paclitaxel and Defactinib were added to different wells, respectively.
After 48 hours of drug action, the cells were photographed using a microscope, and then trypsinized and collected for flow cytometry staining.
The cells were washed twice with flow buffer (DPBS + 2% FBS). 0.5 µL of AF647 Anti-Calreticulin Antibody was added to each well, and mixed well. The cells were incubated at 4°C in the dark for 20 min. After washing once with flow buffer, 195 µL of Annexin-V-FITC binding solution was added, and the cells were gently mixed well. 5 µL of Annexin-V-FITC antibody was added. After further mixing, 10 µL of PI dye was added and mixed well. The cells were incubated at room temperature in the dark for 15 min. The cells were then subjected to flow cytometry.
After the assay, the cell positive rate was analyzed by Flowjo (V10) software.

SK-OV-3 cells [3] = experiment: FAK silencing combined with Docetaxel, Calreticulin (ICD target) by flow cytometry; settings: SK-OV-3 cells transfected with FAK siRNA 50 nM for 24 hours, then 1 µM Docetaxel 48 hours; vs control siRNA
Description: • 1. FAK silencing combined with Docetaxel promotes apoptosis of ovarian cancer cells […] The siRNA technology was used in the in vitro assay to reduce the expression level of FAK, and combined with Docetaxel for 48 hours; flow cytometry was used to detect apoptosis in control (DMSO) and FAK silenced cells • 2. FAK silencing combined with Docetaxel can effectively promote the production of ICD in ovarian cancer cells SK-OV-3 The siRNA technology was used in the in vitro assay to reduce the expression level of FAK, and combined with Docetaxel for 48 hours. Flow cytometry was used to detect the expression of Calreticulin, the main target of ICD.
Assay antibodies: recombinant Alexa Fluor® 647 fluorescent Anti-Calreticulin antibody (Abcam, ab196159), Annexin V apoptosis detection kit (Invitrogen, A35110).
FAK siRNA was provided by Gene Pharma, and the sequence is shown in the following table: • F: […]; • R: […]
• 1. […] After the transfection for 24 hours, the cells were treated with 0.3 µM or 1 µM of Docetaxel for 48 hours, respectively. The cells were stained using Annexin V kit and detected by flow cytometry. The apoptotic values were counted, compared with those of the control group, and plotted using Graphpad 8.0. […] The cells were fluorescent stained with Calreticulin antibody, and the staining results were analyzed by flow cytometry.

colon cancer CT26 cells = experiment: CCK8 cell viability assay, Docetaxel with or without IN10018; settings: Mus musculus, 72 hours, Docetaxel alone
Description: CT26 cells were cultured with RPMI-1640 (Shanghai Basalmedia, catalog number: L210KJ, batch number: F210916) + 10% FBS (Gibco, catalog number: 10099-141c, batch number: 2158737cp), and passaged twice. When the cells were in good condition, they were placed in a 96-well plate, 3000 cells/well. After the cells were spread for 24 hours, the culture medium containing Docetaxel was added. 10 drug concentrations were set. The first concentration was 30 µM, which was serially diluted 3-fold, and the last one was the control, with the drug concentration of 0. Three compound wells were set for each drug concentration. At the same time, another group of cells was established with the same drug concentration as that in the above method. The difference was that: 5 µM IN10018 was added to each well, the drugs were mixed, and the plate was cultured in a 5% CO2 incubator at 37 °C for 72 hours.
After 72 hours of drug action, the cells were observed under a microscope. 10 µl of CCK8 detection reagent (Cellorlab, classification number: CX001M, batch number: 2571100) was added to each well, and the plate was incubated in a 5% CO2 incubator at 37 °C for 2-4 hours. Then the plate was read using microplate reader OD450 ([…]).

## CC(=O)O[C@@]12CO[C@@H]1C[C@H](O)[C@@]1(C)C(=O)[C@H](O)C3=C(C)[C@@H](OC(=O)[C@H](O)[C@@H](NC(=O)OC(C)(C)C)c4ccccc4)C[C@@](O)([C@@H](OC(=O)c4ccccc4)[C@H]21)C3(C)C [Docetaxel]
SK-OV-3 cells [1]
  apoptosis (Annexin V kit): significantly enhanced
[2]
  cell status (cell death) under a microscope: obvious
SK-OV-3 cells [3]
  release and exposure of Calreticulin: significantly enhanced
Colon cancer CT26 cells
  IC50: 190 nM
